*1 amine or outer side, *2 acyl side, *3 side chain or, on linkers, in order; H or OH if unused. Where a SMILES comes first, the peptide text is derived from it. [ ]: non-standard residue; d: D form. The star is where a group is joined. ξ: configuration not given here. Abu(1-amidino-4-piperidyl) = N=C(N)N1CCC(CC[C@H](N)C(=O)O)CC1; Ala(piperidin-4-yl) = O=C([C@H](CC1CCN([*:3])CC1)N[*:1])[*:2]; Gly(1-amidinopiperidin-4-yl) = N=C(N)N1CCC([C@H](N)C(=O)O)CC1; Ala(1-amidino-4-piperidyl) = N=C(N)N1CCC(C[C@H](N)C(=O)O)CC1; DTPA = O=C(O)CN(CCN(CC(=O)O)CC(=O)O)CCN(CC(=O)O)CC(=O)*; Phe(4-guanidino) = N=C(N)Nc1ccc(C[C@H](N)C(=O)O)cc1; ξGly(4-Pip(1-amidino)) = N=C(N)N1CCC(C(N)C(=O)O)CC1; X1 = CC(C)C[C@@H](CN[C@@H](CC(C)C)C(N)=O)N*; X3 = CC[C@H](C)[C@@H](COC(=O)[*:2])N[*:1]; Chg = N[C@H](C(=O)O)C1CCCCC1; Tle = CC(C)(C)[C@H](N)C(=O)O; NHOH = ON*
Key:
[1] = In vitro serum stability assay (HPLC) of In-111 labeled peptide; type: in vitro ADME, human; conditions: for remaining at 4 h: t = 4 h
Description: (§1) All reagents were purchased from Sigma unless otherwise noted. The peptide and ^111InCl3 in 0.05 N HCl were incubated in a sodium acetate/ascorbic acid buffer for 30 minutes at room temperature. The reaction was diluted with 5% ethanol/95% PBS before using in subsequent in vitro assays.
(§2) Human serum was purchased from Sigma (H 1388). The labeled peptide was incubated in either human serum or rat urine at 37EC for the specified amount of time. An aliquot was filtered through a 0.45 μm syringe filter prior to HPLC injection.

[2] = In vitro urine stability assay (HPLC) of In-111 labeled peptide; type: in vitro ADME; conditions: for remaining at 4 h: rat, t = 4 h
Description: as §1, §2

[3] = human serum, 37EC, read-out: HPLC Evaluation of Serum Stability at 37EC, Serum, t = 4 h
[4] = 37EC, read-out: HPLC Evaluation of Urine Stability at 37EC, Urine, t = 4 h

| Compound | % of peptide at 4 hours after incubation at 37EC, Serum ([1]; human serum, 37EC, 4 hours) [%] | % of peptide at 4 hours after incubation at 37EC, Urine ([2]; rat urine, 37EC, 4 hours) [%] | also measured |
| --- | --- | --- | --- |
| CC(C)C[C@H](NC(=O)[C@@H](NC(=O)[C@H](Cc1ccc(O)cc1)NC(=O)[C@@H]1CCCN1C(=O)[C@H](CCCNC(=N)N)NC(=O)[C@@H](NC(=O)[C@@H]1CCCN1C(=O)[C@H](CC1CCNCC1)NC(=O)CN(CCN(CCN(CC(=O)O)CC(=O)O)CC(=O)O)CC(=O)O)C1CCN(C(=N)N)CC1)C(C)(C)C)C(=O)O [DTPA-(Pip)Ala-Pro-Gly(PipAm)-Arg-Pro-Tyr-tBuGly-Leu-OH] ({DTPA}-[Ala(piperidin-4-yl)]P[Gly(1-amidinopiperidin-4-yl)]RPY[Tle]L-OH) | 98.9 | 98.3 |  |
| CC[C@H](C)[C@H](NC(=O)[C@H](Cc1ccc(O)cc1)NC(=O)[C@@H]1CCCN1C(=O)[C@H](CCCNC(=N)N)NC(=O)[C@H](CCCNC(=N)N)NC(=O)CN(CCN(CCN(CC(=O)O)CC(=O)O)CC(=O)O)CC(=O)O)C(=O)N[C@@H](CC(C)C)C(=O)O [DTPA-Arg-Arg-Pro-Tyr-Ile-Leu-OH, reference compound] | 1.6 | 13.0 | % of compound present at 4 hours in serum ([1]; human serum, 37EC, 4 hours): 1.6%; % of compound present at 4 hours in urine ([2]; rat urine, 37EC, 4 hours): 13.0% |
| CC(C)C[C@@H](CN[C@@H](CC(C)C)C(N)=O)NC(=O)[C@H](Cc1ccc(O)cc1)NC(=O)[C@@H]1CCCN1C(=O)[C@H](CCCNC(=N)N)NC(=O)[C@H](Cc1ccc(NC(=N)N)cc1)NC(=O)[C@@H]1CCCN1C(=O)[C@@H](CCCCN)NC(=O)CN(CCN(CCN(CC(=O)O)CC(=O)O)CC(=O)O)CC(=O)O [DTPA-DLys-Pro-(4-Gu)Phe-Arg-Pro-Tyr-Leu-(Ψ-CH2-NH)-Leu-OH] ({DTPA}-[dK]P[Phe(4-guanidino)]RPY-X1; C-terminus assumed) | 76.2 | 95.7 |  |
| CC(C)C[C@H](NC(=O)[C@@H](NC(=O)[C@H](Cc1ccc(O)cc1)NC(=O)[C@@H]1CCCN1C(=O)[C@H](CCCNC(=N)N)NC(=O)[C@H](CC1CCN(C(=N)N)CC1)NC(=O)[C@@H]1CCCN1C(=O)[C@@H](CCCCN)NC(=O)CN(CCN(CCN(CC(=O)O)CC(=O)O)CC(=O)O)CC(=O)O)C(C)(C)C)C(=O)O [DTPA-DLys-Pro-Ala(PipAm)-Arg-Pro-Tyr-tBuGly-Leu-OH] ({DTPA}-[dK]P[Ala(1-amidino-4-piperidyl)]RPY[Tle]L-OH) | 96.5 | 89.8 |  |
| CC(C)C[C@H](NC(=O)[C@@H](NC(=O)[C@@H](Cc1ccc(O)cc1)NC(=O)[C@@H]1CCCN1C(=O)[C@H](CCCNC(=N)N)NC(=O)C(NC(=O)[C@@H]1CCCN1C(=O)[C@@H](CCCCN)NC(=O)CN(CCN(CCN(CC(=O)O)CC(=O)O)CC(=O)O)CC(=O)O)C1CCN(C(=N)N)CC1)C(C)(C)C)C(=O)O (stereo partly drawn) [DTPA-DLys-Pro-Gly(PipAm)-Arg-Pro-DTyr-tBuGly-Leu-OH] | 98.9 | 98.3 |  |
| CC(C)C[C@H](NC(=O)[C@@H](NC(=O)[C@H](Cc1ccc(O)cc1)NC(=O)[C@@H]1CCCN1C(=O)[C@H](CCCNC(=N)N)NC(=O)C(NC(=O)[C@@H]1CCCN1C(=O)[C@@H](CCCCN)NC(=O)CN(CCN(CCN(CC(=O)O)CC(=O)O)CC(=O)O)CC(=O)O)C1CCN(C(=N)N)CC1)C1CCCCC1)C(=O)O (stereo partly drawn) [DTPA-DLys-Pro-Gly(PipAm)-Arg-Pro-Tyr-Chg-Leu-OH] ({DTPA}-[dK]P[ξGly(4-Pip(1-amidino))]RPY[Chg]L-OH) | 75.2 | 7.0 |  |
| CC[C@H](C)[C@@H](COC(=O)N[C@@H](CC(C)C)C(=O)O)NC(=O)[C@H](Cc1ccc(O)cc1)NC(=O)[C@@H]1CCCN1C(=O)[C@H](CCCNC(=N)N)NC(=O)[C@@H](NC(=O)[C@@H]1CCCN1C(=O)[C@@H](CCCCN)NC(=O)CN(CCN(CCN(CC(=O)O)CC(=O)O)CC(=O)O)CC(=O)O)C1CCN(C(=N)N)CC1 [DTPA-DLys-Pro-Gly(PipAm)-Arg-Pro-Tyr-Ile^R-OCO-Leu-OH] ({DTPA}-[dK]P[Gly(1-amidinopiperidin-4-yl)]RPY[X3]L-OH) | 94.6 | 89.8 |  |
| CC(C)C[C@H](NC(=O)[C@@H](NC(=O)[C@H](Cc1ccc(O)cc1)NC(=O)[C@@H]1CCCN1C(=O)[C@H](CCCNC(=N)N)NC(=O)C(NC(=O)[C@@H]1CCCN1C(=O)[C@@H](CCCCN)NC(=O)CN(CCN(CCN(CC(=O)O)CC(=O)O)CC(=O)O)CC(=O)O)C1CCN(C(=N)N)CC1)C(C)(C)C)C(=O)NO (stereo partly drawn) [DTPA-DLys-Pro-Gly(PipAm)-Arg-Pro-Tyr-tBuGly-Leu-HA] ({DTPA}-[dK]P[ξGly(4-Pip(1-amidino))]RPY[Tle]L-{NHOH}) | 89.2 | 60.2 |  |
| CC(C)C[C@H](NC(=O)[C@@H](NC(=O)[C@H](Cc1ccc(O)cc1)NC(=O)[C@@H]1CCCN1C(=O)[C@H](CCCNC(=N)N)NC(=O)[C@H](CCC1CCN(C(=N)N)CC1)NC(=O)[C@@H]1CCCN1C(=O)[C@@H](CCCCN)NC(=O)CN(CCN(CCN(CC(=O)O)CC(=O)O)CC(=O)O)CC(=O)O)C(C)(C)C)C(=O)O [DTPA-DLys-Pro-homoAla(PipAm)-Arg-Pro-Tyr-tBuGly-Leu-OH] ({DTPA}-[dK]P[Abu(1-amidino-4-piperidyl)]RPY[Tle]L-OH) | 84.3 | 71.3 |  |
| CC[C@H](C)[C@H](NC(=O)[C@H](Cc1ccc(O)cc1)NC(=O)[C@@H]1CCCN1C(=O)[C@H](Cc1ccc(NC(=N)N)cc1)NC(=O)[C@H](Cc1ccc(NC(=N)N)cc1)NC(=O)[C@@H]1CCCN1C(=O)[C@@H](CCCCN)NC(=O)CN(CCN(CCN(CC(=O)O)CC(=O)O)CC(=O)O)CC(=O)O)C(=O)N[C@@H](CC(C)C)C(=O)O [In-111-DTPA-DK-P-F(Gu)-F(Gu)-P-Y-I-L, metal not drawn] ({DTPA}-[dK]P[Phe(4-guanidino)][Phe(4-guanidino)]PYIL-OH; C-terminus assumed) |  |  | remaining at 4 h [1, 3]: 25.2%; HPLC Evaluation of Serum Stability at 37EC, Serum, t = 0 ([1]; human serum): 99.0%; HPLC Evaluation of Urine Stability at 37EC, Urine, t = 0 ([2]; rat urine): 92.3%; remaining at 4 h [2, 4]: 2.3% |
| CC[C@H](C)[C@H](NC(=O)[C@H](Cc1ccc(O)cc1)NC(=O)[C@@H]1CCCN1C(=O)[C@H](CCCN=C(N)N)NC(=O)[C@H](Cc1ccc(NC(=N)N)cc1)NC(=O)[C@@H]1CCCN1C(=O)[C@@H](CCCCN)NC(=O)CN(CCN(CCN(CC(=O)O)CC(=O)O)CC(=O)O)CC(=O)O)C(=O)N[C@@H](CC(C)C)C(=O)O [In-111-DTPA-DK-P-F(Gu)-R-P-Y-I-L, metal not drawn] |  |  | remaining at 4 h [1, 3]: 14.1%; HPLC Evaluation of Serum Stability at 37EC, Serum, t = 0 ([1]; human serum): 98.7%; HPLC Evaluation of Urine Stability at 37EC, Urine, t = 0 ([2]; rat urine): 94.1%; remaining at 4 h [2, 4]: 1.5% |
| CC(C)C[C@@H](CN[C@@H](CC(C)C)C(N)=O)NC(=O)[C@H](Cc1ccc(O)cc1)NC(=O)[C@@H]1CCCN1C(=O)[C@H](CCCNC(=N)N)NC(=O)[C@H](Cc1ccc(NC(=N)N)cc1)NC(=O)[C@@H]1CCCN1C(=O)[C@@H](CCCCN)NC(=O)CN(CCN(CCN(CC(=O)O)CC(=O)O)CC(=O)O)CC(=O)O [In-111-DTPA-DK-P-F(Gu)-R-P-Y-L(Ψ-CH2NH)-L-NH2, metal not drawn] ({DTPA}-[dK]P[Phe(4-guanidino)]RPY-X1) |  |  | remaining at 4 h ([1]; Table 4, human serum, read-out: Serum Stability, Serum (t = 4 h)): 76.2%; remaining at 4 h ([2]; Table 4, rat urine, read-out: Urine Stability, Urine (t = 4 h)): 95.7% |

From patent publication US7015306B2 (BioSynthema, Inc., priority 1999, dated 2006)
